Source: paper PMC5218480 (PLoS ONE, 2017)

System: MV-4-11 cells
Test: Gene expression microarray analysis (Affymetrix PrimeView) and GSEA
Format: cell-based, human
Details: ProbeSet 11754607_s_at; LIST B

## Nc1ccc(-c2cccs2)cc1NC(=O)c1ccc2c(c1)cc(C1CC1)n2CCN1CCOCC1 [ACY-1035]
  RFU, HSP90B1 /// MIR3652: 2548.05 RFU
